Source: patent US8163737B2 (Vertex Pharmaceuticals Incorporated, priority 2006, dated 2012)

Target: endogenous CGRP receptor (Homo sapiens, UniProt O60894+Q16602)
Experiment: CGRP functional antagonism using SK-N-MC-BLA (4C10), β-lactamase transcriptional reporter assay
Format: cell-based
Conditions: SK-N-MC (4C10) cells, inhibition of β-lactamase expression in the presence of 200 pM CGRP

Chain of endogenous CGRP receptor (Q16602 23-461): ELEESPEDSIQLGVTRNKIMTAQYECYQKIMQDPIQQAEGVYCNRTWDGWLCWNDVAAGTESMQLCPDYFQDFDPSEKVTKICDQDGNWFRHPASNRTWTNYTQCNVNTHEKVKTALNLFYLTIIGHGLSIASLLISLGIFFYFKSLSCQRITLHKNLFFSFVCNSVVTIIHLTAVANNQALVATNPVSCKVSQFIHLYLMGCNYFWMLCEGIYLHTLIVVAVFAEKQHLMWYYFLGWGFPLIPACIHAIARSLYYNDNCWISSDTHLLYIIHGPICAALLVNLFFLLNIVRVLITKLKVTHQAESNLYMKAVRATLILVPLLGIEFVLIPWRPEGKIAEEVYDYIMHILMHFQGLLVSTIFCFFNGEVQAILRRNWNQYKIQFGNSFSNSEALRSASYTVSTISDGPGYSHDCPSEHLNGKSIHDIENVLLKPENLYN
Chain of endogenous CGRP receptor (O60894 27-148): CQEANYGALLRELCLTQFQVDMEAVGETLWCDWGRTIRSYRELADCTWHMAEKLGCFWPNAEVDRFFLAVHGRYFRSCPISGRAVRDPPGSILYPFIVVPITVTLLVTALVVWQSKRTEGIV

IC50 | SMILES
< 1000 nM | CC(C)(C)CCN1C(=O)C(CC(=O)N2CCC(N3Cc4ccccc4NC3=O)CC2)SC12CCCCCC2 (stereo not drawn) [Compound 154]
< 1000 nM | CC(C)(C)CCN1C(=O)[C@H](CC(=O)N2CCC(n3c(=O)[nH]c4ncccc43)CC2)S[C@H]1c1cccc(F)c1N1CCC(O)C1 (stereo partly drawn) [Compound 468]
< 1000 nM | CC(C)(C)CCN1C(=O)C(CC(=O)N2CCC(n3c(=O)[nH]c4ccccc43)CC2)SC1c1ccccc1N1CCCCC1 (stereo not drawn) [Compound 298]
> 5000 nM | CC(C)(C)CCN1C(=O)[C@H](CC(=O)N2CCC(N3CCc4ccccc4NC3=O)CC2)SC1c1cccc(F)c1N1CCNCC1 (stereo partly drawn) [Compound 398]
1000 to 5000 nM | CC(C)CC(CO)N1C(=O)C(CC(=O)N2CCC(N3CCc4ccccc4NC3=O)CC2)SC1c1ccccc1 (stereo not drawn) [Compound 214]
1000 to 5000 nM | CCN1C(=O)C(CC(=O)N2CCC(N3Cc4ccccc4NC3=O)CC2)SC1c1ccccc1 (stereo not drawn) [Compound 177]
1000 to 5000 nM | CC(C)C[C@H](CO)N1C(=O)C(CC(=O)N2CCC(N3Cc4ccccc4NC3=O)CC2)SC1c1ccccc1 (stereo partly drawn) [Compound 238]
< 1000 nM | CC(C)CCN1C(=O)C(CC(=O)N2CCC(N3Cc4ccccc4NC3=O)CC2)SC1C1CCCCC1 (stereo not drawn) [Compound 95]
< 1000 nM | CC(C)CCN1C(=O)C(CC(=O)N2CCC(N3CCc4ccccc4NC3=O)CC2)SC1c1cccc(C(F)(F)F)c1F (stereo not drawn) [Compound 23]
> 5000 nM | CC(C)(C)CCN1C(=O)C(CC(=O)N2CCC(N3CCc4ccccc4NC3=O)CC2)SC1c1ccccc1N1CCC(N2CCCCC2)CC1 (stereo not drawn) [Compound 384]
1000 to 5000 nM | O=C(CC1SC(c2ccccc2F)N(CC2CCCCC2)C1=O)N1CCC(N2CCc3ccccc3NC2=O)CC1 (stereo not drawn) [Compound 164]
< 1000 nM | CC(C)(C)CCN1C(=O)C(CC(=O)N2CCC(n3c(=O)[nH]c4ncccc43)CC2)SC1c1ccccc1N1CCC(N2CCCCC2)CC1 (stereo not drawn) [Compound 387]
< 1000 nM | O=C(CC1SC(c2ccccc2)N(CCC(F)(F)F)C1=O)N1CCC(N2CCc3ccccc3NC2=O)CC1 (stereo not drawn) [Compound 280]
< 1000 nM | CC(C)CCN1C(=O)C(CC(=O)N2CCC(N3Cc4ccccc4NC3=O)CC2)SC1CCc1ccccc1 (stereo not drawn) [Compound 6]
< 1000 nM | O=C(CC1SC(C2CCCCC2)N(c2ccc(N3CCOCC3)cc2)C1=O)N1CCC(n2c(=O)[nH]c3ncccc32)CC1 (stereo not drawn) [Compound 425]
1000 to 5000 nM | COc1cccc(C2SC(CC(=O)N3CCC(N4Cc5ccccc5NC4=O)CC3)C(=O)N2CCC(C)C)c1 (stereo not drawn) [Compound 139]
1000 to 5000 nM | CC(C)(C)CCN1C(=O)C(CC(=O)N2CCC(N3Cc4ccccc4NC3=O)CC2)SC1c1cccc2cc[nH]c12 (stereo not drawn) [Compound 168]
< 1000 nM | CC(C)(C)CCN1C(=O)C(CC(=O)N2CCC(N3CCc4ccccc4NC3=O)CC2)SC1c1ccccc1N1CCCCC1 (stereo not drawn) [Compound 7]
< 1000 nM | CN1CCN(c2c(Cl)cccc2C2SC(CC(=O)N3CCC(N4CCc5ccccc5NC4=O)CC3)C(=O)N2CCC(C)(C)C)CC1 (stereo not drawn) [Compound 356]
< 1000 nM | Cc1cc(C2SC(CC(=O)N3CCC(N4Cc5ccccc5NC4=O)CC3)C(=O)N2CCC(C)(C)C)cc2cn[nH]c12 (stereo not drawn) [Compound 179]
> 5000 nM | CC(C)CCN1C(=O)C(CC(=O)N2CCC(N3Cc4ccccc4NC3=O)CC2)SC1C(C)c1ccccc1 (stereo not drawn) [Compound 101]
> 5000 nM | CC(C)CCN1C(=O)C(CC(=O)N2CCC3(CC2)C(=O)Nc2ccccc23)SC1c1ccccc1 (stereo not drawn) [Compound 111]
< 1000 nM | CC(C)(C)CCN1C(=O)C(CC(=O)N2CCC(N3CCc4ccccc4NC3=O)CC2)SC1c1cccc2cc[nH]c12 (stereo not drawn) [Compound 277]
< 1000 nM | CC(C)CCN1C(=O)C(CC(=O)N2CCC(N3CCc4ccccc4NC3=O)CC2)SC1c1ccccc1OCc1ccccc1 (stereo not drawn) [Compound 65]
< 1000 nM | CC(C)CCN1C(=O)C(CC(=O)N2CCC(N3Cc4ccccc4NC3=O)CC2)SC1c1cc(C(F)(F)F)ccc1F (stereo not drawn) [Compound 136]
< 1000 nM | CCN1CCN(c2c(F)cccc2C2SC(CC(=O)N3CCC(N4Cc5ccccc5NC4=O)CC3)C(=O)N2CCC(C)(C)C)CC1 (stereo not drawn) [Compound 344]
1000 to 5000 nM | CC(C)CCN1C(=O)C(CC(=O)N2CCC(N3Cc4ccccc4NC3=O)CC2)SC1C(C)(C)C (stereo not drawn) [Compound 75]
